# Assays:
# Format in all cases: physicochemical
# [1] = decolorization of methanol solution added to aqueous 1 N KOH
# [2] = transmission densities of image-receiving components before and after bleaching with aqueous 1 N KOH; conditions: for Transmission density After Bleaching B / Transmission density After Bleaching G / Transmission density After Bleaching R: 1 N KOH
# Excerpt: (§1) Using appropriate solvents, samples of the dye compounds prepared in Examples 12, 13, 24, 26 and 39 were incorporated into the image-receiving layer 3 of image-receiving components comprising the structure set forth below by mixing a solution of each compound with a solution of the graft copolymer and coating this mixture on top of the timing layer to complete each of the image-receiving components.
# A transparent 4 mil polyethylene terephthalate film base coated with, in succession:
# 1. as a polymeric acid layer, a mixture of about 9 parts of a partial butyl ester of polyethylene/maleic anhydride copolymer and 1 part of polyvinyl butyral coated at a coverage of about 2,500 mgs./ft.^2 ;
# 2. a timing layer containing a 14:1 ratio of a 60-30-4-6 tetrapolymer of butylacrylate, diacetone acrylamide, styrene and methacrylic acid and polyvinyl alcohol at a coverage of 500 mgs./ft.^2 ;
# 3. a graft copolymer of 4-vinylpyridine and vinylbenzyltrimethylammoniumchloride grafted on hydroxyethyl cellulose in a weight ratio of 2.2/1/2.2, respectively, coated at a coverage of 300 mgs./ft.^2 to provide an image-receiving layer and containing the selected dye compound at a coverage of 22 mgs./ft.^2.
# Each of the image-receiving components containing the respective dye compounds were placed on a piece of gelatin coated Mylar, and the transmission densities for red (R), green (G) and blue (B) were recorded on a transmission densitometer. Then several drops of aqueous 1 N KOH were added to each gelatin sheet, and the image-receiving components were lightly pressed against the gelatin sheets to "bleach" the dye compounds. […]
# [3] = bleaching rate (T 1/2) at pH=12 in buffer, visible spectrometer; conditions: for Wavelength (λmax-nm): pH=12 buffer; for T 1/2 (pH = 12): pH=12 buffer (aqueous), at λmax given
# Experimental: The "bleaching" rates for the compounds of Examples 21, 23, 24, 39 and 41 were determined at pH=12 in terms of T 1/2. By T 1/2 is meant the time measured for one-half of the colored compound to decolorize. In making these determinations, a cell containing about 3 ml of pH=12 buffer (aqueous) was placed in a visible spectrometer. A sample of each compound was dissolved in methanol, and a small amount (less than 0.1 cc) of each solution was injected into the buffer. The optical densities were then recorded at a selected wavelength value to determine T 1/2.
# [4] = decolorization of solution with aqueous 1N sodium hydroxide, then acidification; conditions: for color after decolorization with 1N NaOH and lowering to pH 1: methanol solution, aqueous hydrochloric acid to pH 1
# Experimental: Also, samples of the compounds prepared in Examples 24, 26 and 39 above were dissolved in a small amount of methanol, and aqueous 1N sodium hydroxide was added to each solution to decolorize the compound.
# [5] = absorption measured in ethanol
# Experimental: (c) To a stirred slurry of the phthalol acyl derivative obtained in step b (7.4 g; 0.0155 M), sodium bicarbonate (6.51 g; 0.078 M) and water (200 ml) was added dropwise, a solution of 4.44 g (0.018 M) iodine in 175 ml methylene chloride. After a total of 20 minutes of stirring at room temperature, the aqueous layer was separated and neutralized by adding it to one liter of water containing 15 ml concentrated hydrochloric acid. The aqueous fraction was extracted with methylene, chloride, the organic layer was dried over sodium sulfate and the solvent was removed in vacuo. The dark orange residue was purified via medium pressure column chromatography (silica gel) methanol-methylene chloride; methanol content varied from 0.5-2%). The title compound was isolated as an orange glass. (λmax 424 nm, Epsilon 22,500 as measured in ethanol)
# [6] = bleaching of TLC spot treated with 1 N NaOH
# Experimental: (c) β-(methylsulfonyl)ethylchloroformate (196 mg) in 8 ml of toluene was added dropwise over 20 minutes to a refluxing solution of 317.3 mg of the compound prepared in step (b) in 15 ml toluene. The yellow mixture was allowed to stir under reflux for an additional hour after addition was complete. The reaction mixture was a deep yellow. […] The yellow spot representing the title compound when treated with 1 N NaOH produced a magenta color which bleached in approximately 5 seconds. The solvent was removed from the remaining reaction mixture under vacuum to give a yellow solid. Preparative TLC with 150 mg of solid in 4 ml tetrahydrofuran using 10% methanol/chloroform gave a yellow band which was separated and washed with acetone to yield approximately 5 mg of the title compound.
# [7] = decolorization half-life of acetone solution in pH=12 buffer
# Experimental: A sample of an acetone solution of the purified dye compound was added to fresh pH=12 buffer and the first half-life (T 1/2) and the second half-life (T 1/2) were measured giving the following results wherein OD refers to optical density. By T 1/2 is meant the time measured for one-half of said colored compound to decolorize.
# The λmax of the pure title compound was 560 nm as measured in acetone--pH 12 buffer, and the T 1/2 values were measured at this wavelength.
# [8] = bleaching of dye in image-receiving layer film with aqueous 1 N NaOH; conditions: dye in image-receiving layer 3
# Excerpt: as §1
# [9] = addition of aqueous base (1 N NaOH) to methanol and acetone solutions
# Excerpt: The title compound gave yellow solutions in methanol and acetone.
# [10] = 22 mgs./ft.^2, after 15 to 60 seconds
# [11] = 22 mgs./ft.^2, coating stored for over 3 months
# [12] = coating stored for over 3 months, bleaching time about 3 minutes
# [13] = Experiment 1, pH=12 buffer, 560 nm
# [14] = Experiment 2, pH=12 buffer, 560 nm
Structure (SMILES),Transmission density Before Bleaching B ([2]; 22 mgs./ft.^2),Transmission density Before Bleaching G ([2]; 22 mgs./ft.^2),Transmission density Before Bleaching R ([2]; 22 mgs./ft.^2),"Transmission density After Bleaching B [2, 10]","Transmission density After Bleaching G [2, 10]","Transmission density After Bleaching R [2, 10]",Wavelength (λmax-nm) [3],T 1/2 (pH = 12) [3],further results
CC(=O)N(C)S(=O)(=O)c1ccccc1C(=C1C=C(C(O)(C(F)(F)F)C(F)(F)F)C(=O)c2ccccc21)c1cc2c3c(c1)CCCN3CCC2 [Example 9],–,–,–,–,–,–,–,–,decolorization time [1]: approximately 5 seconds
COC1=CC(=C(c2ccc(N3CCOCC3)cc2)c2ccccc2S(=O)(=O)N(C)C(=O)OCCS(C)(=O)=O)C=C(OC)C1=O [Example 12],.45,.31,.00,.00,.01,.02,–,–,–
COC1=CC(=C(c2cc3c4c(c2)CCCN4CCC3)c2ccccc2S(=O)(=O)N(C)C(=O)OCCS(C)(=O)=O)C=C(OC)C1=O [Example 13],.09,.32,.21,.00,.01,.01,–,–,–
COC1=CC(=C(c2cc(OC)c(O)c(OC)c2)c2ccccc2S(=O)(=O)N(C)C(=O)OCCS(C)(=O)=O)C=C(OC)C1=O [Example 21],–,–,–,–,–,–,640 nm,2 sec.,–
COC1=CC(=C(c2cc(OC)c(O)c(OC)c2)c2ccccc2S(=O)(=O)N(C)C(C)=O)C=C(OC)C1=O [Example 23],–,–,–,–,–,–,640 nm,158 sec.,–
CC1=CC(=C(c2cc(C)c(O)c(C)c2)c2ccccc2S(=O)(=O)N(C)C(=O)OCCS(C)(=O)=O)C=C(C)C1=O [Example 24],.40,.00,.00,.00,.00,.01,590 nm,2 sec.,color after decolorization with 1N NaOH and lowering to pH 1 [4]: remained colorless even at pH 1
CN(C(=O)OCCS(C)(=O)=O)S(=O)(=O)c1ccccc1C(=C1C=C(C(O)(C(F)(F)F)C(F)(F)F)C(=O)c2ccccc21)c1cc2c3c(c1)CCCN3CCC2 [Example 26],–,–,–,–,–,–,–,–,"color after decolorization with 1N NaOH and lowering to pH 1 [4]: remained colorless even at pH 1; decolorization (in words) [1]: decolorized substantially instantaneously; Transmission density Before Bleaching B [2, 11]: .05; Transmission density Before Bleaching G [2, 11]: .06; Transmission density Before Bleaching R [2, 11]: .19; Transmission density After Bleaching B [2, 12]: .02; Transmission density After Bleaching G [2, 12]: .00; Transmission density After Bleaching R [2, 12]: .02"
COCC(=O)OCc1ccccc1C(=C1C=C(OC)C(=O)C(OC)=C1)c1cc(OC)c(O)c(OC)c1 [Example 39],.59,.03,.01,.01,.00,.00,640 nm,44 sec.,color after decolorization with 1N NaOH and lowering to pH 1 [4]: remained colorless even at pH 1
COC1=CC(=C(c2cc(OC)c(O)c(OC)c2)c2ccccc2COC(=O)COc2ccccc2)C=C(OC)C1=O [Example 41],–,–,–,–,–,–,640 nm,18 sec.,–
CC1=CC(=C(c2cc(C)c(O)c(C)c2)c2ccccc2COC(=O)COCC(=O)O)C=C(C)C1=O [Example 42],–,–,–,–,–,–,–,–,"λmax [5]: 424 nm; Epsilon ([5]; at λmax, in M-1 cm-1 (unit assumed)): 22,500"
CN(Cc1ccccc1C(=C1C=CC(=O)C=C1)c1ccc(O)cc1)C(=O)OCCS(C)(=O)=O [Example 44],–,–,–,–,–,–,–,–,color after acidifying and again treating with aqueous 1N NaOH ([4]; after bleaching in 1N NaOH): remained colorless; time to complete bleaching ([4]; aqueous 1N NaOH): ≤ 5 s; time to bleach of magenta color [6]: approximately 5 seconds
CN(C(=O)OCCS(C)(=O)=O)C(=O)c1ccccc1C(=C1C=CC(=O)C=C1)c1ccc(O)cc1 [Example 45],–,–,–,–,–,–,–,–,"1st T 1/2 [7, 13]: 10.0 s; 2nd T 1/2 [7, 13]: 8.5 s; Final OD [7, 13]: 0.02; OD at 1.5 sec. [7, 13]: 2.00; 1st T 1/2 [7, 14]: 9.5 s; 2nd T 1/2 [7, 14]: 8.5 s; Final OD [7, 14]: 0.01; Initial OD (extrapolated) [7, 14]: 1.15; OD at 3.0 sec. [7, 14]: 0.90; λmax ([7]; acetone--pH 12 buffer): 560 nm; bleaching of film with aqueous 1 N NaOH [8]: quickly bleached; bleaching on addition of aqueous base [9]: rapidly and irreversibly bleached to colorless"
